2 compounds from patent US20150374784A1, “COMPOSITIONS AND METHODS FOR REDUCING GERM CELL DEATH” (Los Angeles Biomedical Research Institute at Harbor-UCLA …, priority 2014, published 2015) can be followed below.

In assay [1] the test system is germ cells in seminiferous tubules. Kind of assay: Germ cell apoptosis in mouse seminiferous tubule cultures ex vivo (TUNEL). Type of assay: cell-based. As for the experimental part: A total of 15 young adult (12-13 week-old) mice were used for these ex vivo studies. The animals were sacrificed with a 5% pentobarbital (200 mg/Kg) IP injection. Testes were dissected and after removing the tunica albuginea, seminiferous tubules isolated from testes were cut into small segments under a dissecting microscope and light and dark segments were separated by dissection. Ten to twelve segments were placed (2 mm in length) in each well on a six well plate with 2 ml serum free Ham F-10 culture medium (GIBCO, Life Technologies, Thermo Fisher Scientific Corp., Carlsbad, Calif.) with the following treatments: control (Con, n=10), heat (43° C., 15 minutes, used as a positive control, n=10); HN 10 μg/mL (n=9); DOX 10 mcM (Dox10, n=10); and DOX 10 mcM+Humanin 10 μg/mL (Dox10+HN, n=10). For these experiments, n represents the total number of times the treatment was repeated using different animals. After 12 hours of incubation at 34° C. the seminiferous tubules from each treatment group were used to make “squashed” seminiferous tubule samples on a slide for TUNEL (TdT-mediated dUTP nick-end labeling) assay to detect germ cell apoptosis (Erkkila, et al., 1997; Toppari & Parvinen, 1985). To quantify the rate of germ cell apoptosis under a light microscope at 400× magnification, a square grid fitted within the eyepiece provided a reference area of 62,500 μm^2. The TUNEL positive apoptotic germ cells within the frame of grid were counted in 4 segments of seminiferous tubules in each group. The incidence of germ cell apoptosis was expressed as the number of apoptotic germ cells per mm^2.
A total of 15 mice were used for ex vivo studies. The animals were sacrificed and seminiferous tubules isolated from testes were cut into small segments under a dissecting microscope to identify light (early stages I-IV and late stages XI-XII) of the seminiferous epithelium) and dark (middle stages VII-VIII) segments. Ten to twelve light segments (2 mm in length) were placed per well on a six well plate with 2 ml serum free medium of F-10 Ham nutrient mixture (Gibco, Life Technologies, Grand Island, N.Y.) following these treatments: control (Con, n=15 where n is the number of times the treatment was repeated with segments obtained from different donor animals), heat (43° C., 15 min.; used as a positive control, n=10), HN 10 μg/mL (HN, n=9), doxorubicin 1 μM (Dox1, n=7), doxorubicin 1 μM+HN 10 μg/mL (Dox1+HN, n=7), doxorubicin 10 μM (Dox10, n=10), and doxorubicin 10 μM+HN 10 μg/mL (Dox10+HN, n=10). After 12 hours of incubation at 34° C. with 5% CO2, the seminiferous tubules from the seven treatment groups were used to make “squashed” seminiferous tubule preparations on a slide for TUNEL assay to detect germ cell apoptosis (Erkkila K, et al., 1997). To quantify the rate of germ cell apoptosis, the squashed segments of seminiferous tubules were examined with an American Optical Microscope (Scientific Instruments, Buffalo, N.Y.) with a 40×objective and a 10×eyepiece lens. A square grid fitted within the eyepiece provided a reference area of 62,500 μm^2. The TUNEL positive apoptotic germ cells within the frame of grid were counted in 4 segments of seminiferous tubules in each group. The incidence of germ cell apoptosis was expressed as the number of apoptotic germ cells per mm^2.

The test system of another assay is Leydig cells. Put plainly: Testosterone of cultured Leydig cells treated with ketoconazole. The conditions noted are these: HN 10 mcg/ml + KTZ 10 mcg/ml, 4 hours. The format is cell-based, rat. How it is done:
Leydig cells were isolated based on a previously described procedure (Gao, et al., 1996; Klinefelter, et al., 1987; Salva, et al., 2001). Briefly, the testes were decapsulated, and then dissociated with collagenase, dispase, DNase and shaking for 15 min at 34° C. The seminiferous tubules were removed by filtration through 40 μm nylon mesh (BD Falcon, Franklin Lakes, N.J.). Leydig cells were then harvested after centrifugation and purified using a Percoll gradient (GE Healthcare, Uppsala, Sweden) and centrifugation (60 minutes at 20,000 g at 4° C.). Enriched Leydig cells were harvested at densities between 1.065 (red) and 1.075 (blue) g/cm^3 from the percoll gradient. These Leydig cells were washed by diluting the percoll and excluding residual germ cells and other cells using a BSA density gradient with centrifugation. The purity of the Leydig cells was >90%, as determined by histochemical staining for 3β-hydroxysteroid dehydrogenase. The cell viability, as assessed by trypan blue exclusion, was greater than 90%. […]
Testosterone concentrations in plasma, testes, and culture medium were measured by a previously described radioimmunoassay (Lue, et al., 2010) with a minimal detection limit of 0.1 ng/ml. […]

The subject of a further assay is germ cells. Put plainly: HNG on CP-induced germ cell apoptosis in mice, 24 hours (Example 6). Type of assay: in vivo, mouse. The conditions noted are these: CP 200 mg/kg/BW IP, HNG 5 mg/kg/BW IP. How it is done:
To examine the protective effects of HNG on germ cells, adult mice were treated with vehicle (control); HNG (5 mg/kg/BW, intraperitoneal injection IP); CP (200 mg/kg/BW, IP); and CP+HNG for 24 hours.

In the next assay the test system is sperm. Put plainly: Cauda epididymal sperm count after multiple doses of CP in mice. The format is in vivo, mouse. The conditions noted are these: 28 days; HNG 10 mg/kg BW daily subcutaneously; CP 150 mg/kg BW IP, 6 doses at 5-day intervals. How it is done:
(§1) The objective of this study was to investigate whether HNG has protective effect on sperm output after multiple doses of CP in mice. Thirty adult male mice (C57BL/6J) were randomized into 4 groups: 1) 5 as control; 2) 5 received daily subcutaneously injection of HNG (10 mg/kg BW); 3) 10 were given 6 doses of CP (150 mg/kg BW) intraperitoneally at 5-day intervals; 4) 10 received both HNG and CP. All mice were killed at 28 days. Plasma HNG and IGF-1 levels were measured by ELISAs. The cauda epididymal sperm count was performed using a hemocytometer.

Another assay relates to IGF-1. Kind of assay: Plasma IGF-1 levels by ELISA after multiple doses of CP. The format is in vivo, mouse. To be noted: 28 days; HNG 10 mg/kg BW daily subcutaneously; CP 150 mg/kg BW IP, 6 doses. As for the experimental part:
as §1
(In general: An ELISA detects its analyte on a solid surface through an enzyme-linked reagent.)

In the case of “MAPRGFSCLLLLTSEIDLPVKRRA [HN, 24-amino acid mitochondrial derived peptide]”, the “number of apoptotic germ cells induced by DOX” value in assay [1] (HN 10 μg/mL + DOX 10 μM, 12 hours) is given as “significantly reduced the number of apoptotic germ cells”. In addition, in assay [1] (HN 10 μg/mL + doxorubicin 1 μM, 12 hours), the “apoptosis induced by low dose doxorubicin” value is “did not significantly decrease apoptosis”. Further, the “germ cell apoptosis, HN treatment alone compared with control” value in assay [1] (HN 10 μg/mL, 12 hours ex vivo culture) was “had no significant effect on germ cell apoptosis”. In addition, the “heat induced germ cell apoptosis” value in assay [1] (HN 10 μg/mL, heat 43° C., 15 min) is given as “prevented the heat induced germ cell apoptosis”. For the same compound, the “KTZ induced decrease in testosterone production by Leydig cells” value in the assay with Leydig cells was “did not salvage the KTZ induced decrease in testosterone production”.
On to `O=P1(N(CCCl)CCCl)NCCCO1` (centres unmarked) [CP, cyclophosphamide monohydrate], for which the “germ cell apoptosis (apoptotic index)” value in the assay with germ cells is “significantly increased germ cell apoptosis in all stages of spermatogenesis”. Besides, the “cauda epididymal sperm count” value in the assay on sperm is 0.5±0.1 ×10^6/mg. Besides, the “plasma IGF-1 levels” value with IGF-1 is 182.4 ± 10.5 ng/mL.
